We go through two compounds from publication PMC5234078, “Integrating mass spectrometry with MD simulations reveals the role of lipids in Na^+/H^+ antiporters” (Nature Communications, 2017).

The experiment addresses T1, NapA (wild-type NapA, MVV) (Thermus thermophilus, UniProt Q72IM4).
T1 construct: gene TT_C1108; homodimer, 82,450 Da; in C8E4
Kind of experiment: native nESI-MS and tandem MS of protein-lipid complexes; ion mobility unfolding. The settings on record: detergent C8E4, ammonium acetate pH 7.5; annular, non-specific phospholipid binding.

T1 sequence (Q72IM4 entry or part of it): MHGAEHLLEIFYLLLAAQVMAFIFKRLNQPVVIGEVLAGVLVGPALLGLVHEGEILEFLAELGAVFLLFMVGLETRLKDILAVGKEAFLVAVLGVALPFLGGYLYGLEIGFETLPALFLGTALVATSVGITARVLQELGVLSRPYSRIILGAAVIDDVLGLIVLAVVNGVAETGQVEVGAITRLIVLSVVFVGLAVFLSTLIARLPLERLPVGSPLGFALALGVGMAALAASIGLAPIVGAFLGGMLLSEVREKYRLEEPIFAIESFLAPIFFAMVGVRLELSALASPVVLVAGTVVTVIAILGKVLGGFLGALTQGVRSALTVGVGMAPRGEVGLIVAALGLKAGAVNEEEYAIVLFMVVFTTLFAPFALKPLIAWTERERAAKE

With `CCCCCCCC/C=C\CCCCCCCC(=O)O[C@H](COC(=O)CCCCCCCCCCCCCCC)COP(=O)(O)OCCN` [PE, 1-palmitoyl-2-oleoyl-glycerophospho-ethanolamine], the “native nESI-MS and tandem MS of protein-lipid complexes; ion mobility unfolding” value is on record as “NapA with PE show a concentration-dependent increase in the number of lipid adducts”.
As for `CCCCCCCC/C=C\CCCCCCCC(=O)O[C@H](COC(=O)CCCCCCCCCCCCCCC)COP(=O)(O)OCC(O)CO` (some centres unmarked) [PG, 1-palmitoyl-2-oleoyl-phosphatidyl-glycerol], the entry is “Interactions with negatively charged PG lipids exhibit higher gas-phase stabilities than with zwitterionic PE”.
